Several values for one entry are separate records, joined by “and”; a condition that tells them apart may be missing. Identical values can stand only once. Entries after “also recorded” stand apart in the source; their conditions may differ. Like-named read-outs stand apart in the source and are kept apart here.
Legend:
[1] = Patients after radiation and chemotherapy, L-Glu-L-Trp 100 μg daily 10 days; conditions: human, in vivo
Description: A total of 246 patients were eventually entered into studies after receiving radiation and chemotherapy. L-Glu-L-Trp was administered to the patients in single 100 μg daily dose for each of 10 days during the period of chemotherapy. A control group constituted 158 similar patients (following radiation and chemotherapy), and these patients were treated in a conventional manner (i.e., chemotherapy and support therapy). […] Immune parameters were periodically monitored over the next 4-6 months in the patients and decreased levels of lymphocytes or their subpopulations were used as clinical triggers for additional therapeutic intervention with L-Glu-L-Trp.

[2] = Chronic prostatitis; assay type: in vivo, human
Source text: Thirty four patients (aged 22 to 45 years) with chronic prostatitis were entered into Group 1 of this trial during the acute phase of their disease. Diagnosis was based on medical history, and physical examination of the prostate (palpated through the rectum). Laboratory testing included microscopic examination of prostate gland secretions, spermography and urinalysis. All patients had previously received full courses of unsuccessful therapy with antibacterial agents, and additional individualized therapy including uroantiseptics, spasmolytic, ganglion blockers, novocain paraprostate and presacral blocks, ultrasound, and prostate gland massage. Success of any individualized therapy was only partial and short-term. […]
Peripheral blood samples were collected for laboratory testing 10 days after the last injection of L-Glu-L-Trp. […]

[3] = test system: Mycobacterium leprae; assay type: in vivo, human
[4] = test system: hepatitis B; test: Children with chronic persistent hepatitis B; assay type: in vivo, human; design: T-Lymphocytes (E-RFC): unit not given here
Description: In accord with a USSR Ministry of Health decision 125 children suffering with chronic persistent hepatitis B were entered into this trial over a two month period. Group 1 consisted of 35 children who received decaris immunomodulatory therapy; Group 2, 38 children who received thymalin treatments; Group 3, […] who received L-Glu-L-Trp; and, Group 4, 32 children who received only conventional symptom specific therapy.
L-Glu-L-Trp was administered at a dose of 2 μg/kg of body mass, im, daily for […], and a repeat (identical) course of treatment was administered 10 days after termination of the first course.

[5] = DTH sensitization to Oxazolone (ear thickness); assay type: in vivo, mice; conditions: for Mean Ear Thickness ± S.D.: challenge day 7, measured at 24 hours
Description: Effects of L-Glu-L-Trp treatments on cell mediated immunity were evaluated by testing its effects on induction of a delayed-type hypersensitivity response in two different studies involving sensitization of mice to Oxazolone and guinea pigs to tuberculin.
In the first study L-Glu-L-Trp was administered ip at a dose of 10 μg/kg, or 1000 μg/kg one hour before a sensitizing dose of Oxazolone (0.1 mL of a 5% solution) was applied to the abdominal surface of a mouse. Seven days later skin sensitivity was measured by administering 25 μL of a 2% oxazolone solution to the right mouse ear and a sample of the diluent solution, as a control, to the left ear. Ear thickness was measured at 24 hours using a Dyer Model micrometer.

[6] = After L-Glu-L-Trp, pre-treatment value Decreased (n = 14)
[7] = Group 1, After L-Glu-L-Trp, 10 days after the last injection
[8] = Non-Responders, After L-Glu-L-Trp (n = 7)
[9] = Responders, L-Glu-L-Trp Therapy (n = 12)

L-Glu-L-Trp
Clinical outcome [1]: decreased incidence and severity of post-operative complications
IgG ([2]; After L-Glu-L-Trp, pre-treatment value Decreased (n = 2)): 7.8 ± 1.1 g/L
Phagocytes (% of PBL) ([2]; After L-Glu-L-Trp, pre-treatment value Decreased (n = 5)): 36.6 ± 8.5 % of PBL
Imm. Cmplx. ([2]; After L-Glu-L-Trp, pre-treatment value Decreased (n = 8)): 0.07 ± 0.01 units
B-Lymphocytes ([2]; After L-Glu-L-Trp, pre-treatment value Decreased (n = 10)): 26.0 ± 2.9
Complement (CH50) [2, 6]: 34.2 ± 0.9
T-Lymphocytes (%) [2, 6]: 37.9 ± 2.2%
IgM ([2]; After L-Glu-L-Trp, pre-treatment value Increased (n = 1)): 3.44 g/L
T-Lymphocytes (%) ([2]; After L-Glu-L-Trp, pre-treatment value Increased (n = 2)): 40.0 ± 15.5%
IgG ([2]; After L-Glu-L-Trp, pre-treatment value Increased (n = 6)): 14.7 ± 1.4 g/L
Complement (CH50) ([2]; After L-Glu-L-Trp, pre-treatment value Increased (n = 7)): 30.7 ± 0.9
B-Lymphocytes ([2]; After L-Glu-L-Trp, pre-treatment value Increased (n = 8)): 24.8 ± 2.9
Imm. Cmplx. ([2]; After L-Glu-L-Trp, pre-treatment value Increased (n = 19)): 0.08 ± 0.01 units
Phagocytes (% of PBL) ([2]; After L-Glu-L-Trp, pre-treatment value Increased (n = 26)): 37.7 ± 3.9 % of PBL
Phagocytes (% of PBL) ([2]; After L-Glu-L-Trp, pre-treatment value Normal (n = 3)): 58.6 ± 18 % of PBL
Imm. Cmplx. ([2]; After L-Glu-L-Trp, pre-treatment value Normal (n = 7)): 0.08 ± 0.01 units
Complement (CH50) ([2]; After L-Glu-L-Trp, pre-treatment value Normal (n = 13)): 29.3 ± 0.9
B-Lymphocytes ([2]; After L-Glu-L-Trp, pre-treatment value Normal (n = 16)): 29.2 ± 2.2
T-Lymphocytes (%) ([2]; After L-Glu-L-Trp, pre-treatment value Normal (n = 18)): 50.0 ± 3.6%
IgG ([2]; After L-Glu-L-Trp, pre-treatment value Normal (n = 26)): 12.5 ± 0.7 g/L
IgM ([2]; After L-Glu-L-Trp, pre-treatment value Normal (n = 33)): 2.08 ± 0.12 g/L
IgA ([2]; After L-Glu-L-Trp, pre-treatment value Normal (n = 34)): 2.2 ± 0.12 g/L
“Unsatisfactory” results ([2]; Group 1): No “unsatisfactory” results were recorded
B-Lymphocytes: % of PBL [2, 7]: 27.2 ± 1.4 % of PBL
B-Lymphocytes: No. [2, 7]: 0.54 ± 0.1 10^9/L
Complement (CH50) [2, 7]: 29.4 ± 0.5
IgA [2, 7]: 2.2 ± 0.1 g/L
IgG [2, 7]: 12.5 ± 0.6 g/L
IgM [2, 7]: 2.1 ± 0.1 g/L
Immune Complexes [2, 7]: 0.80 ± 0.004 units
Phagocytes: % PBL [2, 7]: 39.4 ± 3.5 % PBL
T-Lymphocytes: % of Lym [2, 7]: 44.4 ± 2.3 % of Lym
T-Lymphocytes: No. [2, 7]: 0.88 ± 0.1 10^9/L
Mean % responsive PBL (blast cells), Con-A ([3]; 5-7 days): 22.5 ± 4.0%
Mean % responsive PBL (blast cells), PHA ([3]; 5-7 days): 28.7 ± 3.8%
Additional decrease in area of ulceration, primary NTU ([3]; in vivo): 23.2% and 22%
Blast cells responsive to synthetic leprosy antigen ([3]; in vivo): 2.86±0.9%
Clinical outcome ([3]; in vivo): resolution of dermal leprotic lesions
Decrease in area of ulceration, primary NTU ([3]; in vivo): 40%
Decrease in area of ulceration, recurrent ulcers ([3]; in vivo): 22.6%
EI change versus Before (↓) ([3]; in vivo): (↓33%)
Healing time, primary NTU ([3]; in vivo): 3-6 weeks
Healing time, secondary recurrent NTU ([3]; in vivo): 4-6 weeks
Increase of blast responsiveness of patient lymphocytes to Con-A ([3]; in vivo): 1.6 fold
Increase of blast responsiveness of patient lymphocytes to PHA ([3]; in vivo): 1.8 fold
Increase of lymphocytes responsive to synthetic leprosy antigen ([3]; in vivo): about 1.6 fold
Lepromin skin test conversion ([3]; in vivo): four subjects with negative skin tests for lepromin at the beginning of therapy turned positive
Mean % responsive PBL (blast cells), Con-A ([3]; in vivo): 36.9 ± 1.28%
Mean % responsive PBL (blast cells), PHA ([3]; in vivo): 22.3 ± 1.43%
OKT 4 (%) ([3]; in vivo): 40.67 ± 1.44% and 43.25 ± 1.91%
OKT 4/OKT 8 ([3]; in vivo): 1.61 ± 0.08 and 1.68 ± 0.32
OKT 8 (%) ([3]; in vivo): 25.56 ± 1.15% and 27.25 ± 3.42%
OKT 11 (%) ([3]; in vivo): 72.22 ± 1.52% and 76.25 ± 0.87%
Rate of healing, primary NTU ([3]; in vivo): 6.34 mm^2/day
Rate of healing, recurrent NTU ([3]; in vivo): 5.91 mm^2/day
Romanovsky Staining ([3]; in vivo): regenerative: lst or 2nd phase; also recorded: regenerative: 2nd or 3rd. phase,; also recorded: regenerative: 3rd. phase/healing;; also recorded: degenerative cells &
Percent of Subjects Disease Free at 6 Months After Treatment ([4]; Group 1, Pre-Treatment ALCT Activity None): 100%
Percent of Subjects Disease Free at 6 Months After Treatment ([4]; Group 2, Pre-Treatment ALCT Activity Moderate): 80%
Percent of Subjects Disease Free at 6 Months After Treatment ([4]; Group 3, Pre-Treatment ALCT Activity High): 0%
ALCT Cytotoxic Index [4, 8]: 44.55 ± 6.8
ALCT: % of subjects [4, 8]: 57.14 ± 18.7%
Ratio OKT4^+/OKT8^+ [4, 8]: 0.82 ± 0.07
T-Lymphocytes (E-RFC) [4, 8]: 1382 ± 76 ×10^9
T-Lymphocytes (E-RFC) % Normal Value [4, 8]: (85%)
T-Lymphocytes (E-RFC) % of PBL [4, 8]: 56.7 ± 3.24 % of PBL
ALCT Cytotoxic Index [4, 9]: 50.4 ± 5.5
ALCT: % of subjects [4, 9]: 16.7 ± 13.2%
Ratio OKT4^+/OKT8^+ [4, 9]: 1.08 ± 0.07
T-Lymphocytes (E-RFC) [4, 9]: 1227 ± 65 ×10^9
T-Lymphocytes (E-RFC) % Normal Value [4, 9]: (76%)
T-Lymphocytes (E-RFC) % of PBL [4, 9]: 47.33 ± 2.2 % of PBL
Stable remission over 6 months ([4]; highest ALCT levels): 0%
Patients with increased E-RFC T-lymphocytes and ADCC decreased to normal (responders) ([4]; in vivo): about 63%
Stable remission over 6 months ([4]; moderate ALCT activity): 80%
Stable remission over 6 months ([4]; patients lacking demonstrable ALCT): One hundred percent
Mean Ear Thickness ± S.D. ([5]; 10 μg/kg ip one hour before Oxazolone sensitization): 17 ± 1 μm
DTH sensitivity ([5]; 1000 μg dose one hour prior to antigen): increase in DTH sensitivity to oxazolone
Mean Ear Thickness ± S.D. ([5]; 1000 μg/kg ip one hour before Oxazolone sensitization): 24 ± 1 μm

From US6368788B1 (priority 1987, dated 2002)
